# US10471177B2, “Surface modified biological materials” (Orthobond Corporation, priority 2011, dated 2019)
# Assay: Stability of gentamicin in 0.25M HCl under autoclave conditions
# Assay type: physicochemical
# Details: earlier studies
substance,measurement,value
gentamicin,loss of gentamicin detection,No significant loss
